Publication PMC5527305, “Prevention of Ophthalmia Neonatorum Caused by Neisseria gonorrhoeae Using a Fatty Acid-Based Formulation” (mBio, 2017)

Assays:
bovine cornea = experiment: Bovine corneal opacity and permeability (BCOP) test
Procedure: Bovine eyes were collected from a local slaughter house (ABP, Guildford, Surrey, United Kingdom) and were transported in cold saline solution for testing at the laboratory. Each eye was first visually examined for signs of damage before use. The test was conducted as detailed by Abdelkader and coworkers ([21]). The exposure time of the test substances was 30 s. The selected bactericidal compounds were tested at 1 mM in saline solution, with a corresponding vehicle control (1% ethanol–saline solution) also performed. […] The test area of the cornea was then washed with 10 ml saline solution. Corneal damage to the test area was assessed by fluorescein staining and examination under a cobalt blue filter. Pathological scoring based on opacity, epithelial integrity, and epithelial detachment was done in accordance with previous publications ([19]). Each of the seven lead candidates was tested in triplicate, and each test was performed on a separate day using a different batch of eyeballs. Corneal histology was done as outlined by Abdelkader and coworkers ([21]) by evaluating the damage to the epithelial layer and stroma of the cornea after hematoxylin and eosin staining.

bovine RBCs = experiment: Red blood cell (RBC) lysis assay; type: cell-based
Procedure: Whole bovine blood was obtained from a local slaughter house (ABP), adding 90 ml blood to 10 ml 110 mM trisodium citrate anticoagulant. RBCs were isolated the same day. The RBCs were washed by three repeats of centrifugation (1,500 × g for 10 min) and resuspension in phosphate-buffered saline (PBS) with 10 mM glucose (PBSG). Testing was done following the guidelines of the European Union Reference Laboratory for alternatives to animal testing (EURL-ECVAM) ([22]). The organic acids were solubilized in dimethyl sulfoxide (DMSO) and diluted to a maximum DMSO concentration of 10%. In a 2-ml centrifuge tube, 750 µl of the sample was added to 250 µl RBCs. Controls used in the assay were a complete lysis control (deionized water) and a fragility control (PBSG–10% DMSO). Samples were shaken at room temperature for 1 h and then centrifuged at 14,000 × g for 2 min. An aliquot of 750 µl of the supernatant was taken and its absorbance at 451 nm measured.

- Mean cumulative BCOP score (bovine cornea; 1 mM in saline solution, 30 s exposure, triplicate): lower than 0.5
- Fluorescein staining of cornea (bovine cornea; 1 mM, around rubber application ring): any sign of fluorescein staining
- H50 concentration relative to MBC (bovine RBCs): greater than their MBCs
SMILES: CCCCCCCCCC(=O)OCC(O)CO (stereo not shown) [Monocaprin]
- BCOP irritancy classification (bovine cornea; candidates 1 mM in saline, controls 0.5 M NaOH, 100% acetone, 30 s exposure): nonirritants
